Holding throughout (format): physicochemical
Data set [1] in a line: Absorption maximum wavelength and absorption coefficient of colored composition (visible-light spectrophotometer). Also noted: Absorption Coefficient (ε): unit not given here. Conditions: n-hexane solution; for Absorption Coefficient (ε): calculated by Lambert-Beer law. On the procedure:
Each of the dyes shown above as Exemplary Compounds D-2, D-11, D-13, D-14, D-25, D-37, E-2, E-3, and E-7 was dissolved in a solvent (n-hexane) to make a 3% by mass solution, thereby preparing a colored composition (ink). Each of the colored compositions (inks) obtained was evaluated with respect to its color, absorption maximum wavelength (λmax), absorbance (abs), absorption coefficient (∈), viscosity, and relative dielectric constant, and solubility (% by mass) of each of the dyes in a solvent.
2. Absorption Maximum Wavelength, Absorbance, and Absorption Coefficient of Colored Composition
The absorption maximum wavelength (λmax) and the absorbance (abs) of the colored composition were measured using a visible-light spectrophotometer (trade name: UV-1800PC, manufactured by Shimadzu Corporation). The absorption coefficient (∈) was calculated based on the Lambert-Beer law.

Data set [2] is described as follows: Solubility of the dye in n-hexane. The conditions noted are these: for Solubility (% by mass): in n-hexane at 25° C. and 0.1 MPa; for Solubility (in words): n-hexane. On the procedure: 3. Solubility in n-Hexane
The solubility of each of the dyes in n-hexane (solvent) was determined as follows.
Each of the dyes to be measured was dissolved in n-hexane heated at 50° C., thereby preparing a saturated solution. The saturated solution obtained was then left in an environment of 25° C. and 0.1 MPa for 1 hour. The precipitated dye was filtered, and the precipitation amount was measured, from which the solubility (% by mass) of the dye in n-hexane at 25° C. and 0.1 MPa was calculated.

Data set [3] can be described thus: Measurement of viscosity of dye solutions in n-hexane (R-type viscometer). The conditions noted are these: 20° C.; for Viscosity (5%): 5% by mass solution in n-hexane.
Data set [4] in a line: Measurement of relative dielectric constant of the dye (LCR meter, extrapolation). The conditions noted are these: extrapolated from 5, 7.5 and 10% by mass n-hexane solutions, 20° C., 40% RH, 1 kHz. On the procedure:
4. Measurement of Relative Dielectric Constant
Solutions of the dye in n-hexane having concentrations of 5% by mass, 7.5% by mass and 10% by mass, respectively, were prepared, and individually injected into glass cells each having transparent indium-tin-oxide electrodes and a cell gap of 10 μm. The electrical capacities of the resultant cells were measured at 20° C. and 40% RH using a type 2353 LCR meter (manufactured by NF Corporation) at a measurement frequency of 1 kHz. The electrical capacity of n-hexane was also measured as a control sample. The relative dielectric constant of the dye was calculated based on the extrapolation method using the dielectric constants of the above prepared dye solutions calculated from the their electric capacities.

Structures are written as SMILES.

For `CCCCCCN(CCCCCC)c1ccc(C=C2C(=O)ON=C2C(C)(C)C)c(C)c1` [D-37], in data set [1], the “Absorption Maximum Wavelength λmax” value is listed as 465 nm and the “Absorption Coefficient (ε)” value is 4.10 × 10^4. Also, the “Solubility (% by mass)” value in data set [2] was 1.2 % by mass.

As for `Cc1cc(C=C2C(=O)ON=C2C(C)(C)C)c(C)n1-c1ccc(C(=O)O)cc1` [D-101, reference compound], in data set [2], the “Solubility (% by mass)” value is listed as 0.015 % by mass and the “Solubility (in words)” value is on record as “low solubility”.

Take `CCCCCCCCCCCCn1cc(C=C2C(=O)ON=C2c2ccccc2)c2ccccc21` [D-25]: the “Viscosity (5%)” value in data set [3] is given as 2.1 mPa · S. Moreover, in data set [1], the “Absorption Maximum Wavelength λmax” value came out at 426 nm and the “Absorption Coefficient (ε)” value is 3.66 × 10^4. For the same compound, in data set [2], the “Solubility (% by mass)” value is given as 8.0 % by mass.

As for `CCCCCCCCN(CCCCCCCC)c1ccc(C=CC=C2C(=O)ON=C2C(C)(C)C)c(OC)c1` [E-3], the “Viscosity (5%)” value in data set [3] came out at 2.1 mPa · S. Besides, in data set [1], the “Absorption Maximum Wavelength λmax” value is given as 530 nm and the “Absorption Coefficient (ε)” value is reported as 5.20 × 10^4. For the same compound, in data set [4], the “Relative Dielectric Constant” value was 9.0. The “Solubility (% by mass)” value in data set [2] is 7.2 % by mass.

`CCCCOC(=O)CN(CC(=O)OCCCC)c1ccc(C=C2C(=O)ON=C2C(C)(C)C)cc1` [D-11]: in data set [3], the “Viscosity (5%)” value was determined as 2.1 mPa · S. In addition, in data set [1], the “Absorption Maximum Wavelength λmax” value is 459 nm and the “Absorption Coefficient (ε)” value was 3.80 × 10^4. Moreover, in data set [2], the “Solubility (% by mass)” value was 5.0 % by mass.

In the case of `COc1ccc(C2=NOC(=O)C2=Cc2ccc(N(CC(=O)O)CC(=O)O)cc2)cc1` [D-102, reference compound], in data set [2], the “Solubility (% by mass)” value amounted to 0.008 % by mass and the “Solubility (in words)” value is reported as “low solubility”.

`CCCCCCCCCCCCN(CCCCCCCCCCCC)c1ccc(C=C2C(=O)ON=C2c2ccccc2)cc1` [D-2]: the “Viscosity (5%)” value in data set [3] came out at 2.1 mPa · S. Besides, the “Viscosity (10%)” value in data set [3] (10% by mass solution in n-hexane) is listed as 3.2 mPa · S. In data set [1], the “Absorption Maximum Wavelength λmax” value worked out at 468 nm and the “Absorption Coefficient (ε)” value is 4.50 × 10^4. For the same compound, the “Relative Dielectric Constant” value in data set [4] is on record as 8.2. Besides, in data set [2], the “Solubility (% by mass)” value was 10.5 % by mass.

In the case of `CCCCCCCCCCCCN(CCCCCCCCCCCC)c1ccc(C=CC=CC=C2C(=O)ON=C2C)c(C)c1` [E-7], the “Viscosity (5%)” value in data set [3] came out at 2.3 mPa · S. In addition, in data set [1], the “Absorption Maximum Wavelength λmax” value is 556 nm and the “Absorption Coefficient (ε)” value is 5.20 × 10^4. In data set [2], the “Solubility (% by mass)” value is 5.0 % by mass.

Take `CCCCCCCCCCCCN(CCCCCCCCCCCC)c1ccc(C=CC=C2C(=O)ON=C2C(C)(C)C)c(C)c1` [E-2]: the “Viscosity (5%)” value in data set [3] came out at 2.1 mPa · S. Also, in data set [1], the “Absorption Maximum Wavelength λmax” value is 515 nm and the “Absorption Coefficient (ε)” value is 5.10 × 10^4. Moreover, the “Relative Dielectric Constant” value in data set [4] is given as 9.5. The “Solubility (% by mass)” value in data set [2] is 6.5 % by mass.
